Test results taken from paper PMC12974487, “Inhibition of FicD-mediated AMPylation and deAMPylation by isoprenoid diphosphates” (Proceedings of the National Academy of Sciences of the …, 2026).
Residue numbers refer to the chain shown, from its start. Each block holds one compound with its values, some of them ahead of it.

What was measured:
Assay type in all cases: binding
[1] = target: T1, FicD^E234G (Homo sapiens, UniProt Q9BVA6, E234G); experiment: MIDAS metabolite screen, FicD^E234G; settings: cutoff Q < 0.05 and |Log2 corrected fold change| > 2, metabolites 5 µM
T1 construct: soluble ER luminal domain (residues 105 to 458) of wild-type human FicD and three mutants; 6xHis-Sumo (N, cleaved yes); made in house; host or cells: Rosetta(DE3) E. coli
T1 sequence (Q9BVA6 105-458 E234G): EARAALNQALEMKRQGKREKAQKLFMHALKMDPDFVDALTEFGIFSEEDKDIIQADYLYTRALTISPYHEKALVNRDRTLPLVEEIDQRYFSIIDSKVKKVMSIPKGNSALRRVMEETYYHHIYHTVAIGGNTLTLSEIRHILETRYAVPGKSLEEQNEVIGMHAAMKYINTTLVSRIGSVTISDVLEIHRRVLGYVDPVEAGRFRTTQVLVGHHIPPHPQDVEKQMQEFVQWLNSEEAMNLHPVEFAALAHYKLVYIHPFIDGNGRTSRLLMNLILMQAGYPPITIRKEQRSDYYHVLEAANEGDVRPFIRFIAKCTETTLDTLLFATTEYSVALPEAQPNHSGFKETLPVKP
Description: To identify small-molecule metabolite interactions with FicD, we applied an unbiased high-throughput screening approach known as MIDAS ([44]).

[2] = target: T2, FicD^L258D (Homo sapiens, UniProt Q9BVA6, L258D); experiment: MIDAS metabolite screen, FicD^L258D; settings: cutoff Q < 0.05 and |Log2 corrected fold change| > 2, metabolites 5 µM
T2 construct: soluble ER luminal domain (residues 105 to 458) of wild-type human FicD and three mutants; 6xHis-Sumo (N, cleaved yes); made in house; host or cells: Rosetta(DE3) E. coli
T2 sequence (Q9BVA6 105-458 L258D): T1 sequence (Q9BVA6 105-458 E234G) with G130E, L154D

[3] = target: T3, BiP (Homo sapiens, UniProt P11021, T229A); experiment: DSF specificity control with BiP; settings: same increasing metabolite concentrations
T3 construct: BiPT229A (residues 27-654) was expressed as an 6xHis-Thrombin-T7 n-terminal fusion; 6xHis-Thrombin-T7 (N); made in house; host or cells: Rosetta(DE3) E. coli
T3 sequence (P11021 27-654 T229A): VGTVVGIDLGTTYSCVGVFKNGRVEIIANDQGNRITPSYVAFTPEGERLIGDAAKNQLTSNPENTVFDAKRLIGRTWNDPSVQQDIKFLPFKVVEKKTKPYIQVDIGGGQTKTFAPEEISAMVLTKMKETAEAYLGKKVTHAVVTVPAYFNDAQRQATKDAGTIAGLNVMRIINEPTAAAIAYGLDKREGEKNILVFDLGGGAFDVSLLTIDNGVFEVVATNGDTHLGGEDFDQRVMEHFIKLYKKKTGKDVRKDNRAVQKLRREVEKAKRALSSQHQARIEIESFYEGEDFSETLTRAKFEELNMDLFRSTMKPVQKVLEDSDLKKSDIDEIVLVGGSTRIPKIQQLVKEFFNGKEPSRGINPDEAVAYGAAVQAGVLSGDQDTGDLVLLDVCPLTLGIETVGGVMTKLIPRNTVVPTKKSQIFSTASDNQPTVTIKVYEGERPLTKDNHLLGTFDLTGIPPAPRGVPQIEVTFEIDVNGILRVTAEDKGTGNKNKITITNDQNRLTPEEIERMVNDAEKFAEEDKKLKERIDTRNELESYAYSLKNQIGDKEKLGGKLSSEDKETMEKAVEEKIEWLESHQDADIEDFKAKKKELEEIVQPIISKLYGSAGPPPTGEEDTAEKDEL

MIDAS protein-metabolite interaction (enrichment/depletion) [1]: significantly enriched
SMILES: Nc1ncnc2c1ncn2[C@@H]1O[C@H](COP(=O)(O)OP(=O)(O)O)[C@@H](O)[C@H]1O [ADP]

SMILES: CC(C)=CCC/C(C)=C/COP(=O)(O)OP(=O)(O)O [GPP, geranyl-pyrophosphate]
MIDAS protein-metabolite interaction (enrichment/depletion) [2]: significantly enriched
MIDAS protein-metabolite interaction (enrichment/depletion) [1]: significantly enriched
change in melt curves or Tm of BiP [3]: neither GPP nor FPP elicited a change

SMILES: CC(C)=CCC/C(C)=C/CC/C(C)=C/COP(=O)(O)OP(=O)(O)O [FPP, farnesyl-pyrophosphate]
MIDAS protein-metabolite interaction (enrichment/depletion) [2]: significantly enriched
change in melt curves or Tm of BiP [3]: neither GPP nor FPP elicited a change
